Measurements published in paper PMC6271425, “Synthesis and Sar Study of Diarylpentanoid Analogues as New Anti-Inflammatory Agents” (Molecules, 2014).
Like-named read-outs stand apart in the source and are kept apart here.

Key:
[1] = tested on: NO production in IFN-γ/LPS-stimulated RAW 264.7 macrophages; assay: NO suppression (Griess nitrite determination) in IFN-γ/LPS-stimulated RAW 264.7 macrophages; type: cell-based, murine; conditions: for NO Inhibition at 50 µM (%) ± S.E.M: 50 µM test concentration; for inhibition at 50 µM: RAW264.7, 50 µM test concentration, read-out: NO Inhibition at 50 µM (%) ± S.E.M
Procedure: The synthesized compounds were screened for NO suppression activity in IFN-γ/LPS-stimulated RAW 264.7 macrophages at a 50 µM test concentration. […] The IC50 values of the fifty-seven bioactive compounds were determined and compared to that of the positive control, curcumin. An MTT assay was also carried out to confirm that NO inhibition was not due to cytotoxicity. […] The complete bioassay results of all the compounds are provided as Table S2 in Supplementary Data. RAW 264.7 murine macrophages cells obtained from American Type Culture Collection (ATCC, Rockville, MD, USA) were grown in Dulbecco’s Modified Eagle’s Medium (DMEM) containing 10% fetal bovine serum (FBS) and 1% penicillin/streptomycin in a 95% air and 5% CO2 atmosphere at 37 °C. RAW 264.7 cells at 90%–95% confluency were detached and seeded (50,000 cells/well) into a 96-well culture plate with 50 μL of DMEM and incubated for 24 h. The cells were then stimulated in […] of LPS (Escherichia coli, serotype 0111:B4) and 1 ng/ml of interferon-gamma (IFN-γ) in the presence or absence of test compounds for 17 h. Nitrite concentration was then determined by Griess assay by reacting 50 μL of cell culture supernatant with 50 μL of Griess reagent (1% sulfanilamide and 0.1% N-(1-naphthyl)ethylenediamine dihydrochloride in 2.5% phosphoric acid) at room temperature. The optical density was measured at 550 nm after 5 min of incubation at room temperature with a microplate reader.

[2] = Cell cytotoxicity determination (MTT assay); type: cell-based, murine; conditions: mouse, RAW 264.7 macrophage cells, RAW 264.7 cells, read-out: Cytotoxicity IC50 (µM) ± S.E.M
Procedure: The synthesized compounds were screened for NO suppression activity in IFN-γ/LPS-stimulated RAW 264.7 macrophages at a 50 µM test concentration. […] The IC50 values of the fifty-seven bioactive compounds were determined and compared to that of the positive control, curcumin. An MTT assay was also carried out to confirm that NO inhibition was not due to cytotoxicity. […] The complete bioassay results of all the compounds are provided as Table S2 in Supplementary Data.
RAW 264.7 murine macrophages cells obtained from American Type Culture Collection (ATCC, Rockville, MD, USA) were grown in Dulbecco’s Modified Eagle’s Medium (DMEM) containing 10% fetal bovine serum (FBS) and 1% penicillin/streptomycin in a 95% air and 5% CO2 atmosphere at 37 °C.
Supernatant in each well was removed followed by addition of 100 µL DMEM. Subsequently, 20 µL of 3-(4,5-dimethylthiazol-2-yl)-2,5-diphenyltetrazolium bromide (MTT, 5 mg/mL) was then added and the plate was incubated in a 95% air and 5% CO2 atmosphere at 37 °C for 4 h. The mixture of culture media and MTT in all wells were removed and the purplish formazan crystals formed were dissolved in dimethyl sulfoxide (DMSO) and further incubated for 15 min at room temperature. The color intensity was then measured at 570 nm at room temperature.

[3] = IFN-γ/LPS-stimulated RAW 264.7 cells
[4] = Mus musculus, IFN-γ/LPS-stimulated RAW 264.7 cells
[5] = Mus musculus, RAW264.7, IFN-γ/LPS-stimulated RAW 264.7 cells, read-out: NO Inhibition IC50 (µM) ± S.E.M
[6] = Mus musculus, RAW264.7, Table 6, NO suppression IC50 used for QSAR, unit inferred, read-out: IC50
[7] = Mus musculus, RAW264.7, −log IC50 of NO suppression, read-out: pIC50 (converted)
[8] = IFN-γ/LPS-stimulated RAW 264.7 cells, read-out: NO Inhibition IC50 (µM) ± S.E.M

Row | IC50 [1, 5] [µM] | IC50 [1, 6] [µM] | IC50 [1, 7] [µM] | IC50 [1, 8] [µM] | SMILES | NO Inhibition at 50 µM (%) ± S.E.M [1, 3] [%] | inhibition at 50 µM [1, 4] [%] | IC50 [2] [µM]
1 | 22.6 ± 0.515 | 22.6 ± 0.5 | 22.4 | – | O=C(/C=C(O)/C=C/c1ccccc1)c1ccccc1O [Compound 1] | 94.7 ± 1.2 | 94.7 ± 1.2 | 56.2 ± 1.1
2 | 27.32 ± 0.234 | 27.3 ± 0.2 | 27.5 | – | O=C(/C=C(O)/C=C/c1ccccc1Cl)c1ccccc1O [Compound 2] | – | 91 ± 2.9 | > 100
3 | 26.7 ± 0.732 | 26.7 ± 0.7 | 26.9 | – | O=C(/C=C(O)/C=C/c1cccc(Cl)c1)c1ccccc1O [Compound 3] | 93.0 ± 3.4 | 93 ± 3.43 | > 100
4 | 29.4 ± 0.7 | 29.4 ± 0.7 | 29.5 | – | O=C(/C=C(O)/C=C/c1cccc(Br)c1)c1ccccc1O [Compound 4] | 88.4 ± 3.2 | 88.4 ± 3.21 | > 100
5 | 25.7 ± 0.621 | 25.7 ± 0.6 | 25.7 | – | COc1ccccc1/C=C/C(O)=C/C(=O)c1ccccc1O [Compound 5] | 91.8 ± 1.5 | 91.8 ± 1.49 | > 100
6 | 31.6 ± 0.632 | 31.6 ± 0.6 | 31.6 | – | COc1cccc(/C=C/C(O)=C/C(=O)c2ccccc2O)c1 [Compound 6] | 81.6 ± 4.0 | 81.6 ± 3.97 | > 100
7 | 24.6 ± 0.73 | 24.6 ± 0.7 | 24.5 | – | COc1ccc(/C=C/C(O)=C/C(=O)c2ccccc2O)cc1OC [Compound 8] | 94.7 ± 1.7 | 94.7 ± 1.7 | > 100
8 | 16.6 ± 1.14 | 16.6 ± 1.1 | 16.6 | < 20 | COc1cc(/C=C/C(O)=C/C(=O)c2ccccc2O)cc(OC)c1OC [Compound 9] | 96.6 ± 1.4 | 96.6 ± 1.43 | > 100
9 | 49 ± 1.05 | 49 ± 1 | 49 | – | O=C(/C=C(O)/C=C/c1ccco1)c1ccccc1O [Compound 12] | 82.0 ± 3.2 | 82 ± 3.18 | > 100
10 | 28.4 ± 0.435 | 28.4 ± 0.4 | 28.2 | – | COc1ccc(OC)c(/C=C/C(O)=C/C(=O)c2ccccc2O)c1 [Compound 14] | – | 92.9 ± 0.2 | > 100
11 | 42.64 ± 0.128 | 42.6 ± 0.1 | 42.7 | – | O=C(/C=C(O)/C=C/c1cccs1)c1ccccc1O [Compound 16] | 79.1 ± 4.6 | 79.1 ± 4.58 | > 100
12 | 39.6 ± 4.13 | 39.6 ± 4.1 | 39.8 | – | Cc1ccc(/C=C/C(O)=C/C(=O)c2ccccc2O)s1 [Compound 18] | 58.9 ± 5.8 | 58.9 ± 5.76 | > 100
13 | 23 ± 1.7 | 23 ± 1.7 | 22.9 | – | O=C(/C=C(O)/C=C/c1cccc2ccccc12)c1ccccc1O [Compound 19] | 85.8 ± 3.9 | 85.8 ± 3.93 | > 100
14 | 47.6 ± 1.14 | 47.6 ± 1.1 | 47.9 | – | O=C(/C=C(O)/C=C/c1ccccc1)c1cc(Cl)ccc1O [Compound 21] | 85.3 ± 6.8 | 85.3 ± 6.76 | > 100
15 | 30 ± 2.1 | 30 ± 2.1 | 30.2 | – | O=C(/C=C(O)/C=C/c1ccccc1Cl)c1cc(Cl)ccc1O [Compound 22] | 82.5 ± 4.3 | 82.5 ± 4.32 | > 100
16 | 36.2 ± 0.922 | 36.2 ± 0.9 | 36.3 | – | O=C(/C=C(O)/C=C/c1cccc(Cl)c1)c1cc(Cl)ccc1O [Compound 23] | 66.6 ± 4.1 | 66.6 ± 4.11 | 68.4 ± 2.2
17 | 36 ± 0.515 | 36 ± 0.5 | 36.3 | – | COc1ccccc1/C=C/C(O)=C/C(=O)c1cc(Cl)ccc1O [Compound 24] | 70.4 ± 1.3 | 70.4 ± 1.32 | > 100
18 | 17.4 ± 0.372 | 17.4 ± 0.4 | 17.4 | < 20 | COc1cccc(/C=C/C(O)=C/C(=O)c2cc(Cl)ccc2O)c1 [Compound 25] | 76.3 ± 6.5 | 76.3 ± 6.48 | > 100
19 | 13.6 ± 0.532 | 13.6 ± 0.5 | 13.5 | < 20 | COc1cc(/C=C/C(O)=C/C(=O)c2cc(Cl)ccc2O)cc(OC)c1OC [Compound 28] | – | 89.5 ± 5.9 | > 100
20 | 32.17 ± 0.176 | 32.2 ± 0.2 | 32.4 | – | O=C(/C=C(O)/C=C/c1cccs1)c1cc(Cl)ccc1O [Compound 35] | 68.8 ± 4.2 | 68.8 ± 4.21 | > 100
21 | 25.3 ± 1.73 | 25.3 ± 1.7 | 25.1 | – | O=C(/C=C(O)/C=C/c1ccc(Cl)s1)c1cc(Cl)ccc1O [Compound 36] | 71.6 ± 3.2 | 71.5 ± 3.2 | > 100
22 | 62.4 ± 2.29 | 62.4 ± 2.3 | 63.1 | – | Cc1ccc(/C=C/C(O)=C/C(=O)c2cc(Cl)ccc2O)s1 [Compound 37] | 56.0 ± 2.6 | 56 ± 2.62 | > 100
23 | 25.5 ± 1.03 | 25.5 ± 1 | 25.7 | – | Cc1ccc(/C=C/C(O)=C/C(=O)c2cc(Cl)ccc2O)o1 [Compound 38] | 73.8 ± 1.1 | 73.8 ± 1.14 | > 100
24 | 20.8 ± 0.54 | 20.8 ± 0.5 | 20.9 | – | O=C(/C=C(O)/C=C/c1ccccc1)c1cc(Br)ccc1O [Compound 41] | – | 79.9 ± 8.7 | > 100
25 | 19.8 ± 0.907 | 19.8 ± 0.9 | 20 | < 20 | O=C(/C=C(O)/C=C/c1cccc(Cl)c1)c1cc(Br)ccc1O [Compound 43] | 81.2 ± 5.2 | 81.2 ± 5.16 | > 100
26 | 29.5 ± 0.469 | 29.5 ± 0.5 | 29.5 | – | COc1ccc(C(=O)/C=C(O)/C=C/c2ccccc2)c(O)c1 [Compound 45] | – | 87.9 ± 5.1 | > 100
27 | 58.5 ± 2.45 | 58.5 ± 2.4 | 58.9 | – | COc1ccc(C(=O)/C=C(O)/C=C/c2ccccc2Cl)c(O)c1 [Compound 46] | 76.2 ± 4.6 | 76.2 ± 4.57 | > 100
28 | 45.8 ± 0.804 | 45.8 ± 0.8 | 45.7 | – | COc1cccc(/C=C/C(O)=C/C(=O)c2ccc(OC)cc2O)c1 [Compound 49] | 57.5 ± 6.5 | 57.5 ± 6.45 | > 100
29 | 21.7 ± 0.5 | 21.7 ± 0.5 | 21.9 | – | COc1ccc(C(=O)/C=C(O)/C=C/c2ccc(OC)c(OC)c2)c(O)c1 [Compound 51] | 58.9 ± 2.8 | 58.9 ± 2.76 | > 100
30 | 16.7 ± 0.557 | 16.7 ± 0.6 | 16.6 | < 20 | O=C(/C=C(O)/C=C/c1cc(O)ccc1O)c1ccccc1O [Compound 83] | 94.3 ± 1.8 | 94.3 ± 1.83 | –
